Measurements: patent US4782014A, “Assay and purification of amyloid components, applications, and kits therefor” (Ciba-Geigy Corporation, priority 1985, dated 1988)

B1: SAA: α1 globulin consisting of a single polypeptide chain of molecular weight between 11'500 and 14'000 Dalton (protein, UniProt P0DJI8 19-122, looked up)
Serum amyloid A-1 protein: RSFFSFLGEAFDGARDMWRAYSDMREANYIGSDKYFHARGNYDAAKRGPGGAWAAEVITDARENIQRFFGHGAEDSLADQAANEWGRSGKDPNHFRPAGLPEKY

Key:
[1] = biological target: human SAP binding to TNP-KLH coated polystyrene (Homo sapiens, UniProt P02743); assay: Inhibition of binding of human SAP to TNP-KLH coated polystyrene; details: for IC50 / concentration at 50% inhibition of human SAP binding to TNP-KLH coated polystyrene: 40 ng/ml human SAP, preincubated 2 hours at 20° C.; for IC50: read-out: concentration at 50% inhibition of human SAP binding to TNP-KLH coated polystyrene
Method: The samples containing 40 ng/ml human SAP are preincubated with dilutions of the compound to be tested as an inhibitor for two hours at 20° C. The perent decrease in SAP binding to TNP-KLH is calculated in comparison to the SAP binding in the absence of any inhibitor.

[2] = ELISA for SAP: binding of purified human SAP to plastic surface
Method: The wells of flat-bottom polystyrene microtiter plates (Immulon®, Dynatech, Zug, Switzerland) or polyvinyl chloride microtiter plates (Microtest III™, Becton Dickinson, Oxnard, CA, USA) are incubated with either 100 μl 0.3M NaHCO3 alone, 100 μl KLH 2 μg/ml in 0.3M NaHCO3, or 100 μl TNP-KLH (Example 1) 2 μg/ml in 0.3M NaHCO3 for one hour or more at room temperature. […] The plates are washed with 5 mM CaCl2, then incubated with 100 μl each of human SAP containing samples (standard solutions or serum dilutions in ELISA buffer) for 2 hours at 20° C. […] The plates are washed with 5 mM CaCl2, incubated for 2 hours at 20° C. with 100 μl of rabbit antiserum to human SAP (Calbiochem) diluted 1:10^4 with ELISA buffer, washed again with 5 mM CaCl2, and incubated overnight in a water-saturated atmosphere at 20° C. with 100 μl of horseradish peroxidase conjugated donkey anti-rabbit Ig antiserum (Amersham Int., Amersham, UK) diluted 1:5000 with ELISA buffer. The plates are washed, then developed with 100 μl per well of buffered o-phenylenediamine (100 mg in 48.6 ml 0.1M citric acid and 51.4 ml 0.2M Na2 HPO4, pH 5.0) containing 0.03% H2 O2 in the dark at 20° C. for 15 minutes. The reaction is stopped by addition of 25 μl 2.5M H2 SO4 and the optical density of the colour developed by the enzyme reaction determined at 492 nm using a Titertek® multiscan spectrophotometer (Flow Laboratories). […]

[3] = Retention of SAP on TNP-Sepharose column; assay type: binding, human; details: absence of Ca^2+ ions, TBS
[4] = ELISA for SAA: binding of human SAA to polystyrene

Chain of human SAP binding to TNP-KLH coated polystyrene (P02743 20-223): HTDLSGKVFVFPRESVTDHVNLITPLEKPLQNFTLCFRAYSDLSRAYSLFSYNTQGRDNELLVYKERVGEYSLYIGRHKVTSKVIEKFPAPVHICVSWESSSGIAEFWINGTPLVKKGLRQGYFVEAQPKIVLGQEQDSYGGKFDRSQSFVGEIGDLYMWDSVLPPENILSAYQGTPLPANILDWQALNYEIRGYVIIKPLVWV

| Molecule | inhibition of SAP binding to TNP-KLH coated polystyrene, in words [1] | IC50 [1] | also measured |
| --- | --- | --- | --- |
| Nc1ccc([As](=O)(O)O)cc1 [p-aminophenyl-arsonic acid] | Inhibiting properties | 27.3 ± 4.9 mM |  |
| O=[N+]([O-])c1ccc([As](=O)(O)O)cc1 [p-nitrophenylarsonic acid] | Inhibiting properties | 4.2 ± 1.3 mM |  |
| O=[N+]([O-])c1cc([N+](=O)[O-])c2ccc(S(=O)(=O)O)cc2c1O [2,4-dinitro-1-naphthol-7-sulphonic acid] | Inhibiting properties | 43.3 ± 5.8 mM |  |
| O=C(O)CN(CCOCCOCCN(CC(=O)O)CC(=O)O)CC(=O)O [EGTA, 1,2-di(2-aminoethoxy)ethane-N,N,N',N'-tetraacetic acid] | inhibitors of SAP binding at concentrations equal or in excess of the Ca^2+ concentration | 17 ± 2.2 mM |  |
| TNP-BSA: prepared from BSA and 2,4,6-trinitrobenzenesulfonic acid yielding a conjugate with 15 TNP residues per BSA molecule | compete efficiently for SAP |  | concentration at 50% inhibition of human SAP binding to TNP-KLH coated polystyrene [1]: 0.33 ± 0.06 µg/mL |
| SAP: serum amyloid P-component, a 9.5S α1 glycoprotein of 235'000 Dalton molecular weight |  |  | SAP binding at reduced CaCl2 concentration ([2]; 0.06 mM or lower concentrations of CaCl2): no SAP is bound; SAP binding at reduced CaCl2 concentration ([2]; 0.12 mM CaCl2): sharp decrease of SAP binding; retention of SAP on TNP-Sepharose [3]: not retained |
| O=C(O)CN(CCN(CC(=O)O)CC(=O)O)CC(=O)O [EDTA, ethylenediamine-N,N,N',N'-tetraacetic acid] | inhibitors of SAP binding at concentrations equal or in excess of the Ca^2+ concentration | 5.35 ± 1.3 mM |  |
| pectic acid | Inhibiting properties |  | concentration at 50% inhibition of human SAP binding to TNP-KLH coated polystyrene [1]: 0.2 ± 0.07 µg/mL |
| B1 |  |  | binding of human SAA to KLH-coated polystyrene and polystyrene alone, in words ([4]; KLH-coated polystyrene and polystyrene alone): Substantial binding; binding of human SAA to polystyrene coated with TNP-KLH, in words ([4]; TNP-KLH coated polystyrene): very efficiently; binding of human SAA when Ca^2+ is omitted, in words ([4]; TNP-KLH coated polystyrene, Ca^2+ omitted): without loss in binding efficiency |
